Converted amounts (≈) assume the structure as drawn. “And” between values parts separate entries of the source, which are not always exact repeats. Equal entries are not always repeated. Where two headings read alike, the source gives them in different places.
Legend:
[1] = system: Tubulin; assay: Tubulin Assembly; assay type: biochemical, bovine; details: for Tubulin Assembly ED50/ED50 Taxol: ratio to taxol, <1 indicates greater activity than taxol; for Tubulin Assembly ED50 (concentration which reduces the supernatant protein concentration by 50%): tubulin 1 mg/ml, 37° C., 15 minutes, PEM buffer pH 6.9
Description: (§1) Tubulin binding and cytotoxicity data for cephalomannine and the synthetic derivatives described herein are included for comparison. The tubulin testing was done exactly as described by Himes (Georg, G. I., et al., "Synthesis of Biologically Active Taxol Analogues with Modified Phenylisoserine Side Chains", J. Med. Chem. Vol 35:4230, (1992)), incorporated herein by reference. Taxol has been included in Table 1 for reference. […] A number less than 1 in these columns indicates greater activity than taxol. A number greater than 1 in these columns indicates lower activity than taxol. The error in the tests appears to be ±10-20%. […] These tests have been used and relied upon by experimentalists in this field to determine the potential efficacy of a taxol derivative for the treatment of cancer.
Tubulin free of microtubule-associated proteins was purified from bovine brain as previously described (Algaier, J., Himes, R. H., "The Effect of Dimethyl Sulfoxide on the Kinetics of Tubulin Assembly" Biochim. Biophys. Acta, Vol 954, pp 235-243, 1988). The assembly reaction was done at 37° C. in PEM buffer (0.1M Pipes, pH 6.9, 1 mM EGTA, and 1 mM MgSO4) at a protein concentration of 1 mg/ml (10 μM) in the presence of taxol or taxol analogues and 0.5 mM GTP. The reaction was monitored by the increase in the apparent absorbance at 350 nm.
^b Tubulin at 1 mg/ml was incubated with various concentrations of th
compounds at 37° C. for 15 minutes in 0.5 ml of PEM buffer (0.1 M
Pipes, 1 mM EGTA, 1 mM MgSO4, pH 6.9). Samples were centrifuged and
the protein concentration on the supernatant was determined.
^d The concentration in ng/ml which reduces the supernatant protein

[2] = system: cell; details: when delivered to the cell; cited from earlier work
[3] = system: tubulin; details: Schiff et al. 1979; cited from earlier work
[4] = system: B16 Melanoma cells; assay: cells; assay type: cell-based; details: for IC50: Mus musculus; for B16 Proliferation ED50/ED50 Taxol: ratio to taxol, <1 indicates greater activity than taxol
Description: as §1
Cells were seeded in 24-well plates at 7.5×10^4 cells/well and grown in Dulbecco's modified minimal essential medium (MEM) containing 10% bovine calf serum at 37° C. for 24 hours in a 97% humidified atmosphere of 5.5% CO2. The medium was then replaced with fresh medium containing taxol or its derivatives and dissolved in DMSO in concentrations ranging from 7.5×10^-9 M to 1×10^-7 M for taxol and other derivatives. The final concentration of DMSO in the cell medium was 0.5% or less. […] After 40 hours, the cells were released by trypsinization and counted in a Coulter counter.
^c B16 Melanoma cells were incubated with various concentrations of
the compounds for about 40h at 37° C.
^e The concentration in ng/ml which reduces the number of cells by 50

[5] = system: tubulin; details: compared with taxol, cited from earlier work
[6] = system: taxol resistant tumor cells; details: compared with taxol; cited from earlier work
[7] = system: mouse macrophage-like J774.2 cells; details: compared with taxol; cited from earlier work
[8] = system: P388 murine leukemia cells; details: compared with taxol; cited from earlier work
[9] = B16, 40 h, B16 melanoma cells, about 40h at 37° C., read-out: B16 Proliferation ED50 (concentration which reduces the number of cells by 50% compared to a control)

For CC(=O)O[C@H]1C(=O)[C@@]2(C)[C@H]([C@H](OC(=O)c3ccccc3)[C@]3(O)C[C@H](OC(=O)[C@H](O)[C@@H](NC(=O)c4ccccc4)c4ccccc4)C(C)=C1C3(C)C)[C@]1(OC(C)=O)CO[C@@H]1C[C@@H]2O [Compound 1, taxol, reference compound], the “Tubulin Assembly ED50/ED50 Taxol” value [1] was 1.26, the “Tubulin Assembly ED50/ED50 Taxol” value ([1]; listed as taxol) was “approximately 1” and the “ED50 for taxol in the assembly assay” value ([1]; taxol reference value for the ratios (footnotes g, h, i), 15 min) was 0.854 µg/mL and 0.97 µg/mL and 0.85 µg/mL. For the same molecule, the cytotoxic activity [2] was “cytotoxic activity”, the tubulin binding [3] was “significant tubulin binding” and the IC50 [4, 9] was 0.0214 µg/mL (≈ 0.0251 µM). The IC50 ([4]; B16, 40 h, taxol reference value for the ratios (footnotes g, h, i), read-out: ED50 for taxol in the B16 assay) was 0.0225 µg/mL, the “B16 Proliferation ED50/ED50 Taxol” value [4] was 0.95 and the “ED50 for taxol in the B16 assay” value ([4]; taxol reference value for the ratios (footnotes g, h, i), 2400 min) was 22.7 ng/mL.
For CC(=O)O[C@@]12CO[C@@H]1C[C@H](O)[C@@]1(C)C(=O)[C@H](O)C3=C(C)[C@@H](OC(=O)[C@H](O)[C@@H](NC(=O)OC(C)(C)C)c4ccccc4)C[C@@](O)([C@@H](OC(=O)c4ccccc4)[C@H]21)C3(C)C [Compound 2, taxotere], the “activity as a promoter of tubulin polymerization vs taxol” value [5] is listed as “slightly more active”, the “in vitro tubulin binding activity of taxotere” value ([5]; in vitro) is listed as “enhanced in vitro tubulin binding activity” and the “potency in taxol resistant tumor cells vs taxol” value [6] is listed as “at least fivefold more potent”. For the same molecule, the “potency as an inhibitor of replication vs taxol, J774.2 cells” value [7] was 1.5 fold and the “potency as an inhibitor of replication vs taxol, P388 cells” value [8] was 1.5 fold.
With C/C=C(\C)C(=O)N[C@@H](c1ccccc1)[C@@H](O)C(=O)O[C@H]1C[C@@]2(O)[C@@H](OC(=O)c3ccccc3)[C@@H]3[C@]4(OC(C)=O)CO[C@@H]4C[C@H](O)[C@@]3(C)C(=O)[C@H](OC(C)=O)C(=C1C)C2(C)C [Compound 3, cephalomannine] the “Tubulin Assembly ED50/ED50 Taxol” value [1] was 0.82, the IC50 ([4]; B16, 40 h, read-out: B16 Proliferation ED50 (concentration which reduces the number of cells by 50% compared to a control)) was 0.0335 µg/mL (≈ 0.0403 µM) and the “B16 Proliferation ED50/ED50 Taxol” value [4] was 1.49.
With CC(=O)O[C@H]1C(=O)[C@@]2(C)[C@H]([C@H](OC(=O)c3ccccc3)[C@]3(O)C[C@H](OC(=O)[C@H](O)[C@@H](NC(=O)C(C)=O)c4ccccc4)C(C)=C1C3(C)C)[C@]1(OC(C)=O)CO[C@@H]1C[C@@H]2O [Compound 4ab] the “activity in the in vitro tubulin assembly test relative to taxol” value ([1]; compared to taxol) was “comparable to or superior to taxol”, the “tubulin binding activity” value ([1]; in vitro testing) was “good” and the “Tubulin Assembly ED50/ED50 Taxol” value [1] was 1.46. For the same molecule, the “Tubulin Assembly ED50 (concentration which reduces the supernatant protein concentration by 50%)” value [1] was 1.24 µg/mL, the IC50 [4, 9] was 0.0171 µg/mL (≈ 0.0209 µM) and the “activity in the B16 Proliferation test relative to taxol” value ([4]; compared to taxol) was “comparable to or superior to taxol”. For the same molecule, the “cytotoxicity activity” value ([4]; in vitro testing) was “good” and the “B16 Proliferation ED50/ED50 Taxol” value [4] was 0.75.
In the case of CC(=O)O[C@H]1C(=O)[C@@]2(C)[C@H]([C@H](OC(=O)c3ccccc3)[C@]3(O)C[C@H](OC(=O)[C@H](OC(C)=O)[C@@H](NC(=O)C(C)=O)c4ccccc4)C(C)=C1C3(C)C)[C@]1(OC(C)=O)CO[C@@H]1C[C@@H]2O [Compound 5, 240 -Acetyl-α-ketoamide], the “Tubulin Assembly ED50/ED50 Taxol” value [1] is reported as greater than 10, the “Tubulin Assembly ED50 (concentration which reduces the supernatant protein concentration by 50%)” value [1] is reported as greater than 8.54 µg/mL and the IC50 ([4]; B16 melanoma cells, about 40h at 37° C., read-out: B16 Proliferation ED50 (concentration which reduces the number of cells by 50% compared to a control)) is reported as greater than 0.854 µg/mL. The “B16 Proliferation ED50/ED50 Taxol” value [4] was greater than 38.
In the case of CC(=O)O[C@H]1C(=O)[C@]2(C)[C@@H](OC(C)=O)C[C@H]3OC[C@@]3(OC(C)=O)[C@H]2[C@H](OC(=O)c2ccccc2)[C@]2(O)C[C@H](OC(=O)[C@H](OC(C)=O)[C@@H](NC(=O)C(C)=O)c3ccccc3)C(C)=C1C2(C)C [Compound 6, 2',7-bis(acetyl)-α-ketoamide], the “Tubulin Assembly ED50/ED50 Taxol” value [1] is reported as greater than 10, the “Tubulin Assembly ED50 (concentration which reduces the supernatant protein concentration by 50%)” value [1] is reported as greater than 8.54 µg/mL and the IC50 [4, 9] is reported as greater than 0.854 µg/mL. For the same molecule, the “B16 Proliferation ED50/ED50 Taxol” value [4] was greater than 38.
In the case of CC[Si](CC)(CC)O[C@H]1C[C@H]2OC[C@@]2(OC(C)=O)[C@H]2[C@H](OC(=O)c3ccccc3)[C@]3(O)C[C@H](OC(=O)[C@H](O[Si](CC)(CC)CC)[C@@H](NC(=O)C(C)=O)c4ccccc4)C(C)=C([C@@H](OC(C)=O)C(=O)[C@]12C)C3(C)C [Compound 7, 2',7-Bis(triethylsilyl)-α-ketoamide], the “Tubulin Assembly ED50/ED50 Taxol” value [1] is reported as greater than 10, the “Tubulin Assembly ED50 (concentration which reduces the supernatant protein concentration by 50%)” value [1] is reported as greater than 8.54 µg/mL and the IC50 [4, 9] is reported as greater than 8.54 µg/mL. For the same molecule, the “B16 Proliferation ED50/ED50 Taxol” value [4] was greater than 380.
With CC(=O)O[C@H]1C(=O)[C@@]2(C)[C@H]([C@H](OC(=O)c3ccccc3)[C@]3(O)C[C@H](OC(=O)[C@H](O)[C@@H](NC(=O)C(C)(O)C(C)O)c4ccccc4)C(C)=C1C3(C)C)[C@]1(OC(C)=O)CO[C@@H]1C[C@@H]2O (some centres unmarked) [Compound 8, Cephalomannine diol] the “Tubulin Assembly ED50/ED50 Taxol” value [1] was 3.4, the “Tubulin Assembly ED50 (concentration which reduces the supernatant protein concentration by 50%)” value [1] was 3.3 µg/mL and the IC50 [4, 9] was greater than 0.854 µg/mL. The “B16 Proliferation ED50/ED50 Taxol” value [4] was greater than 38.
